Columns and labels:
[1] = target: T1, NAC peptide (Homo sapiens, UniProt P37840); assay: Binding of compounds to NAC peptide by electrospray mass spectrometry; settings: area of bound NAC-compound complex peaks divided by area of unbound NAC peaks; 5:1 compound:NAC, pH 7.4, 6.6% EtOH
T1 construct: a 35 amino acid peptide corresponding to residues 61 to 95 of the α-synuclein protein; made in house; host or cells: chemical solid-phase peptide synthesis (Fmoc), not expressed
Protocol: The ability of the compounds of the present invention to bind to NAC peptide in aqueous solution was evaluated. The binding ability correlates to the intensities of the peptide-compound complex peaks observed by the Electrospray Mass Spectrum. Millipore distilled deionized water was used to prepare all aqueous solutions. For pH determination a Beckman (Φ36 pH meter fitted with a Corning Semi-Micro Combination pH Electrode was employed.
The optimal cone voltage was determined to be 20V.
Mass spectrometry: Mass spectrometric analysis was performed using a Waters ZQ 4000 mass spectrometer equipped with a Waters 2795 sample manager. MassLynx 4.0 (earlier by MassLynx 3.5) was used for data processing and analysis. Test compounds were mixed with disaggregated peptides in aqueous media (6.6% EtOH) at a 5:1 ratio (20 μM NAC: 100 μM of test compound or 40 μM NAC : 200 μM of test compound). The pH of the mixture was adjusted to 7.4 (±0.2) using 0.1% NaOH (3-5 μL). Periodically, NAC peptide solution at 20 μM or 40 μM was also prepared in the same fashion and run as control. The spectra were obtained by introducing the solutions to the electrospray source by direct infusion using a syringe pump at a flow rate of 25 μl/min, and scanning from 100 to 2100 Da in the positive mode. The scan time was 0.9 sec per scan with an inter-scan delay of 0.1 sec and the run time was 5 min for each sample. All the mass spectra were sum of 300 scans. The desolvation and source temperature was 70° C. and the cone and capillary voltage were maintained at 20 V and 3.2 kV respectively.
The total area under the peaks for the bound NAC-compound complex divided by total area under the peaks for unbound NAC was determined for each compound tested.

[2] = target: T1, NAC peptide; assay: Circular dichroism (CD) analysis of NAC peptide conformation after incubation with test compounds (fibrillogenesis assay); type: biochemical; parameters: key to CD Result (NAC conformation observed): Random Coil: signifies that the NAC in the sample was observed to have been maintained in its original random coil conformation indicating that the compound coincubated with NAC is active; signifies that the compound was not able to prevent the shift from random coil to β-sheet; β-sheet/β-turn: signifies that the compound was not able to prevent the shift from random coil to β-sheet; Transition: signifies that the NAC was observed to be in the process of converting from random coil to β-sheet indicating that the compound was able to slow down the conformational change and indicates activity; settings: for CD Result (NAC conformation observed): 125 μL of 40 μM NAC peptide with 125 μL of 200 μM test compound, pH 7.4, 37° C., conformations over repeated trials; for Activity (CD): active if it prevents the transition to β-turn/β-sheet in 50% or more of the trials; for Activity: active trials / trials: number of CD trials in which transition to β-turn/β-sheet was prevented, over trials run
Protocol: 2 mM Solutions were prepared in TBSA buffer (Tris 0.02 M, NaCl 0.15 M, NaN3 0.005%, pH 7.4) and stored at 4° C. For the assays, compounds were diluted to the desired concentrations in TBSAE buffer (Tris 0.02 M, NaCl 0.15 M, NaN3 0.005%, EDTA 100 μM, pH 7.4) and combined with the NAC peptides.
(§1) Fibrillogenesis assays were employed to identify test compounds that inhibit NAC's ability to assemble into fibers. Following removal of HFIP by evaporation under N2 gas, 20 μM NAC peptide is incubated in the assay buffer (0.02M Tris, 0.15 M NaCl, 0.005% NaN3, 100 uM EDTA) at 37° C. in a Perkin-Elmer HTS 7000 plus microplate reader with shaking for 1 minute every twenty minutes. The presence of fibers can be monitored by three different methods.
(§2) The following assays were set up in clear polystyrene 96 well microplates by combining 125 μL of 40 μM NAC peptide with 125 μL of 200 μM test compound in 0.02M Tris, 0.15 M NaCl, 0.005% NaN3, […]. The microplates were sealed with a plastic sheet and incubated at 37° C. in a Perkin-Elmer HTS 7000 microplate reader with shaking for 1 minute, every 20 minutes. • Thioflavin T Analysis. To perform this assay 5 μM Thioflavin T is added to the NAC assembly conditions described above. The fluorescence is measured at 430 excitation/485 emission every twenty minutes with a Perkin-Elmer HTS microplate reader for the duration of the assay. […] This assay allows for the identification of compounds that can inhibit this increase in fluorescence upon incubation. • Turbidity Analysis. Alternatively, NAC peptide that has been incubated with test compounds in the appropriate assembly conditions can be analyzed by reading the absorbance at 405 nm to follow the turbidity of the solution which is also an indication of the formation of aggregates. • Circular Dichroism (CD) Analysis. […] This assay allows for the identification of compounds that can prevent NAC from adopting a β-sheet/β-turn conformation upon incubation. • At the appropriate time point, during the incubation, the test solutions were transferred to 0.1-cm path length quartz cuvettes and scanned by CD spectroscopy between 190 and 260 nm, with a resolution of 0.1 nm and a bandwidth of 1 nm using a Jasco J-715 spectropolarimeter at 37° C. […] At the time point at which CD scans are performed a 3 μl aliquot is removed from the sample, spotted onto a Formvar grid and then negatively stained with 4% uranyl acetate. The grids were examined for the presence of fibrils and amorphous aggregates using a JOEL 2000 transmission electron microscope at a 25,000 × magnification. This assay can be used to confirm the absence of fibers in the presence of compounds which inhibit NAC assembly by ThT and CD. The final results were obtained by averaging 10 complete sectors.
For compounds that have been tested multiple times, a compound is classified as active if it prevents the transition to β-turn/β-sheet in 50% or more of the trials.

[3] = target: T1, NAC peptide; assay: Electron microscopy (EM) analysis of NAC fiber formation in the fibrillogenesis assay; type: biochemical; settings: for EM Score: amount of fibers compared to NAC alone (100% fibers), 10 frames of a 300-mesh grid
Protocol: as §1, §2
Analysis by Electron Microscopy: The fibrillogenesis assays performed for CD analysis were also spotted for EM. The electron micrographs are visually examined and a score is assigned as follows. Briefly, 10 representative frames from a 300-mesh grid are analyzed and given a score representing the amount of fibers formed in the sample as compared to a micrograph with NAC alone without a test compound (100% fibers). A score was assigned based on this analysis on a scale from 0% to 100% fibers: (−) indicates an observation of less than about 25% fibers; (+) indicates about 25% fibers; (++) about 50% fibers; (+++) indicates about 75% fibers; and (++++) 100% fibers. […]

Compound	Binding Strength [1]	CD Result (NAC conformation observed) [2]	Activity (CD) [2]	Activity: active trials / trials [2]	Activity (EM) [3]	EM Score [3]	Effect on NAC conformation by CD ([2]; NAC incubated in presence of heparin, minimum at 218 nm typical of β-sheet)	Appearance of NAC fibers by EM ([3]; NAC in the presence of heparin)
CCCCCCCCCCCCCCCCS(C)(C)CCCS(=O)(=O)O [compound 11]	++ (Moderate; when the total binding is between 120% and 70%)	Random Coil	Coil	4/4				
O=S(=O)(O)CCCN1CCN(Cc2ccccc2)CC1 [compound 12]	++ (Moderate; when the total binding is between 120% and 70%)	β-turn Transition	No	⅓				
O=S(=O)(O)CCCN1CCc2c([nH]c3ccccc23)C1 [compound 13]	+++ (Strong; when the total binding is 120% and higher)	Random coil Transition	Yes	3/3				
CC(=O)C1(c2ccccc2)CCN(CCCS(=O)(=O)O)CC1 [compound 15]	+++ (Strong; when the total binding is 120% and higher)	β-sheet/β- turn Random Coil	No	¼				
CC[N+](CC)(CC)CCCS(=O)(=O)[O-] [compound 16]	Indeterminant	Random Coil	Yes	3/3				
CC[N+](CC)(CC)CCCS(=O)(=O)[O-] [drawing 62]					Yes	AA+		
NCCCCS(=O)(=O)O [drawing 63]					Yes	AA+		
O=S(=O)(O)CC(O)CNC1CCCCC1 (stereo not drawn) [drawing 64]					No	+++ ((+++) indicates about 75% fibers)		
O=S(=O)(O)CCC[N+]12CCC(CC1)CC2 [drawing 65]					Yes	+ ((+) indicates about 25% fibers)		
heparin [reference compound]							promotes a conformational change	longer and more interwined fibers
